{"source": "PubChem BioAssay (NCI)", "experiment_in_all_cases": "inhibition of tumour cell growth, NCI panel, 48 h", "key": {"[1]": {"tested_on": "UACC-62 melanoma"}, "[2]": {"tested_on": "CAKI-1 renal"}, "[3]": {"tested_on": "PC-3 prostate"}, "[4]": {"tested_on": "MOLT-4 leukemia"}, "[5]": {"tested_on": "HOP-92 NSCLC"}, "[6]": {"tested_on": "NCI-H460 lung"}, "[7]": {"tested_on": "COLO 205 colon"}, "[8]": {"tested_on": "SNB-75 CNS"}, "[9]": {"tested_on": "UO-31 renal"}, "[10]": {"tested_on": "SNB-19 CNS"}, "[11]": {"tested_on": "MCF7 breast"}, "[12]": {"tested_on": "NCI-H226 lung"}, "[13]": {"tested_on": "U251 CNS"}, "[14]": {"tested_on": "ACHN renal"}, "[15]": {"tested_on": "IGROV1 ovarian"}, "[16]": {"tested_on": "HCC-2998 colon"}, "[17]": {"tested_on": "HL-60(TB) leukemia"}, "[18]": {"tested_on": "OVCAR-5 ovarian"}, "[19]": {"tested_on": "SK-MEL-5 melanoma"}, "[20]": {"tested_on": "NCI-H522 lung"}, "[21]": {"tested_on": "MALME-3M melanoma"}, "[22]": {"tested_on": "NCI-H23 lung"}, "[23]": {"tested_on": "HCT-15 colon"}, "[24]": {"tested_on": "HOP-62 NSCLC"}, "[25]": {"tested_on": "786-0 renal"}, "[26]": {"tested_on": "T-47D breast"}, "[27]": {"tested_on": "NCI/ADR-RES ovarian"}, "[28]": {"tested_on": "OVCAR-3 ovarian"}, "[29]": {"tested_on": "SF-295 CNS"}}, "note": "Where “and” joins values, the source holds several entries; their conditions need not be identical. Equal values may be shown once.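 Each compound was tested at five concentrations against cells in 96-well plates for 48 hours. At the GI50, growth is halved. The concentration for full growth arrest is given as TGI.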"}
{"smiles": "Cc1ccc(F)c(NC(=O)Nc2ccc(-c3cccc4[nH]nc(N)c34)cc2)c1", "values": [{"measurement": "GI50", "setting": "[1]", "result": "3.27 µM and 4.2 µM"}, {"measurement": "TGI", "setting": "[1]", "result": "11.7 µM and > 10 µM"}, {"measurement": "GI50", "setting": "[2]", "result": "2.83 µM and 3.85 µM"}, {"measurement": "TGI", "setting": "[2]", "result": "10.1 µM and > 10 µM"}, {"measurement": "GI50", "setting": "[3]", "result": "4.18 µM and 4.54 µM"}, {"measurement": "TGI", "setting": "[3]", "result": "17.7 µM and > 10 µM"}, {"measurement": "GI50", "setting": "[4]", "result": "3.13 µM and 3.08 µM"}, {"measurement": "TGI", "setting": "[4]", "result": "> 42.9", "unit": "µM"}, {"measurement": "GI50", "setting": "[5]", "result": "3.67 µM and 3.17 µM"}, {"measurement": "TGI", "setting": "[5]", "result": "14.4 µM and 8.25 µM"}, {"measurement": "GI50", "setting": "[6]", "result": "2.42 µM and 2.76 µM"}, {"measurement": "TGI", "setting": "[6]", "result": "5.94 µM and 8.32 µM"}, {"measurement": "GI50", "setting": "[7]", "result": "2.21 µM and 2.27 µM"}, {"measurement": "TGI", "setting": "[7]", "result": "4.32 µM and 4.9 µM"}, {"measurement": "GI50", "setting": "[8]", "result": "4.72 µM and 3.54 µM"}, {"measurement": "TGI", "setting": "[8]", "result": "15.3 µM and > 10 µM"}, {"measurement": "GI50", "setting": "[9]", "result": "2.79 µM and 2.91 µM"}, {"measurement": "TGI", "setting": "[9]", "result": "11.3 µM and > 10 µM"}, {"measurement": "GI50", "setting": "[10]", "result": "3.79 µM and 3.96 µM"}, {"measurement": "TGI", "setting": "[10]", "result": "15.8 µM and > 10 µM"}, {"measurement": "GI50", "setting": "[11]", "result": "2.29 µM and 2.07 µM"}, {"measurement": "TGI", "setting": "[11]", "result": "8.4 µM and > 10 µM"}, {"measurement": "GI50", "setting": "[12]", "result": "5.88 µM and 6.06 µM"}, {"measurement": "TGI", "setting": "[12]", "result": "20.5 µM and > 10 µM"}, {"measurement": "GI50", "setting": "[13]", "result": "3.49 µM and 3.16 µM"}, {"measurement": "TGI", "setting": "[13]", "result": "20.6 µM and > 10 µM"}, {"measurement": "GI50", "setting": "[14]", "result": "3.14 µM and 2.85 µM"}, {"measurement": "TGI", "setting": "[14]", "result": "11.4 µM and > 10 µM"}, {"measurement": "GI50", "setting": "[15]", "result": "4 µM and 3.13 µM"}, {"measurement": "TGI", "setting": "[15]", "result": "15.8 µM and > 10 µM"}, {"measurement": "GI50", "setting": "[16]", "result": "2.52 µM and 2.79 µM"}, {"measurement": "TGI", "setting": "[16]", "result": "6.67 µM and 7.81 µM"}, {"measurement": "GI50", "setting": "[17]", "result": "1.95 µM and 3.29 µM"}, {"measurement": "TGI", "setting": "[17]", "result": "5.63 µM and > 10 µM"}, {"measurement": "GI50", "setting": "[18]", "result": "2.74 µM and 3.42 µM"}, {"measurement": "TGI", "setting": "[18]", "result": "9.11 µM and > 10 µM"}, {"measurement": "GI50", "setting": "[19]", "result": 2.88, "unit": "µM"}, {"measurement": "TGI", "setting": "[19]", "result": 8.56, "unit": "µM"}, {"measurement": "GI50", "setting": "[20]", "result": "1.87 µM and 2.19 µM"}, {"measurement": "TGI", "setting": "[20]", "result": "3.79 µM and 5.28 µM"}, {"measurement": "GI50", "setting": "[21]", "result": "4.24 µM and 2.64 µM"}, {"measurement": "TGI", "setting": "[21]", "result": "16.4 µM and 7.36 µM"}, {"measurement": "GI50", "setting": "[22]", "result": "2.4 µM and 3.41 µM"}, {"measurement": "TGI", "setting": "[22]", "result": "6.17 µM and > 10 µM"}, {"measurement": "GI50", "setting": "[23]", "result": "3.21 µM and 3.11 µM"}, {"measurement": "TGI", "setting": "[23]", "result": "11.2 µM and > 10 µM"}, {"measurement": "GI50", "setting": "[24]", "result": "4.07 µM and 3.12 µM"}, {"measurement": "TGI", "setting": "[24]", "result": "16.2 µM and > 10 µM"}, {"measurement": "GI50", "setting": "[25]", "result": "3.58 µM and 4.22 µM"}, {"measurement": "TGI", "setting": "[25]", "result": "18 µM and > 10 µM"}, {"measurement": "GI50", "setting": "[26]", "result": "3.62 µM and 2.89 µM"}, {"measurement": "TGI", "setting": "[26]", "result": "17.3 µM and > 10 µM"}, {"measurement": "GI50", "setting": "[27]", "result": "3.4 µM and 3.81 µM"}, {"measurement": "TGI", "setting": "[27]", "result": "18.6 µM and > 10 µM"}, {"measurement": "GI50", "setting": "[28]", "result": "2.85 µM and 3.15 µM"}, {"measurement": "TGI", "setting": "[28]", "result": "7.76 µM and > 10 µM"}, {"measurement": "GI50", "setting": "[29]", "result": "2.55 µM and 3.48 µM"}, {"measurement": "TGI", "setting": "[29]", "result": "12.3 µM and > 10 µM"}]}
